We go through six compounds from US20250186486A1, “POTENTIATION OF DURABLE ANTITUMOR IMMUNITY BY MULTIFACTORIAL IMMUNE MODULATION” (BAYLOR COLLEGE OF MEDICINE, priority 2022, published 2025).

In one test the test system is 4T-1 TNBC cells. The test is described as follows: Subcutaneous 4T-1 TNBC tumor model, intratumoral injection; tumor growth by caliper/IVIS, survival. It is filed as in vivo, Balb/c mice. As to conditions: 4T-1 s.c.; for impact on tumor growth: injected intratumorally on day 12, caliper (FIGS. 7, 8). An excerpt: Mice. 6-10 week old female Balb/c mice or C57BL/6 animals of both sexes were procured from Baylor College of Medicine or Jackson Laboratories (Bar Harbor, ME). Th-MYCN mice in the 129X1/SvJ background were a kind gift from Dr. William Weiss (UCSF, San Francisco, CA) and were bred in house. All mice were maintained in accordance with the specific IACUC requirements of Baylor College of Medicine and in accordance with animal protocol AN-8375.
Tumor Implantation and Measurements. 500,000 4T-1 TNBC cells (+/−luc2 transduction) were subcutaneously injected onto the hind quarters/back of each mouse and allowed time to reach palpation (approximately 50-100 mm^3) before treatment. For orthotopic 4T-1 experiments, 500,000 4T-1 cells were implanted in the mammary fat pad according to the method of Zhang et al.^34 Following establishment of tumors, experimental cohorts were assembled by means of stratified randomization. Attempts were made to minimize confounding variables such as order of cohort treatment, order of tumor measurement, and cage location by means of simple randomization. Tumors were treated with either the indicated antitumor regimen or vehicle control and measured by IVIS imaging (if applicable) or calculated by caliper measurement. 100,000 MOC-2 HNSCC cells were subcutaneously injected onto the hind quarters/back of each mouse and allowed to become palpable (approximately 50-100 mm^3) before treatment. Tumor size and progression were determined by caliper measurement. Single cell suspensions were generated from Th-MYCN tumors according to the method of Kroesen et al.^12 Suspensions were subcutaneously injected onto the hind quarters/back of each mouse and allowed time to reach palpation (approximately 50-100 mm^3) before treatment. Tumor size and progression were determined by caliper measurement. Tumor volumes were calculated by measuring in two dimensions according to the formula (longest length^2)×shortest length.
IVIS Imaging. Post tumor implantation, mice were injected with […] of 10 mg/ml D-Luciferin (Regis Technologies, Morton Grove, IL), incubated for 7 min and bio-luminescence was measured with the IVIS imaging system (Caliper Life Sciences, Waltham, MA) following a 60 second exposure. Imaging was performed at 2-4 day intervals.
Antitumor reagents. For optimization in the TNBC model, all reagents were dissolved in either DMSO or sterile water based on solubility requirements and included Copper(II) diethyldithiocarbamate at 85 μg/50 μl (VWR, Radnor, PA), 2-Cl-IB-MECA at 20 μg/50 μl (Millipore, Burlington, MA), DMXAA at […]/50 μl (R&D Systems, Minneapolis, MN), 5′ppp-dsRNA/Lyovec at 375 ng/50 μl (Invivogen, San Diego, CA), R848 at 15 μg/50 μl (Invivogen), galunisertib at […]/50 μl (Selleckchem, Houston, TX), epcadostat at […]/50 μl (Selleckchem), N^w-Hydroxy-nor-L-arginine at 6 μg/50 μl (Sigma-Aldrich, St. Louis, MO), L-NMMA at 100 ng/50 μl (Abcam, Boston, MA), clodronate at […]/50 μl (Abcam), and 4-1BB ligand at 1 μg/50 μl (NovusBio). Combinatorial treatments were reconstituted as a 10× stock, combined as necessary, and diluted to a 1× concentration with the appropriate diluent. Treatments were intratumorally injected with a 28 gauge needle as a 50 μl bolus. […]
Statistical Analysis. Significance of differences, unless stated otherwise, was determined by one-way analysis of variance (ANOVA) using Tukey's honestly significant difference (HSD) post hoc test. […]

The next test has as its system 4T-1 luc-2+ cells. The test is described as follows: Orthotopic 4T-1 TNBC model (mammary fat pad), intratumoral treatment, IVIS. It is filed as in vivo, Balb/c mice. To be noted: 4T-1 luc-2+ in mammary fat pad, intratumoral treatment from day 7. As to the method: Lastly, the boosting regimen was combined together with regimen 16 and performed a dose response analysis at 1×, 0.5×, 0.125×, 0.0625×, and 0.03125× concentrations. […] Similar to the experiment outlined in FIGS. 1C-D, this experiment was performed with the 4T-1 luc2^neg parent cell line to validate that protective immune responses were not dependent upon the presence of xenogeneic luciferase. The treatment model was next validated in the orthotopic setting (Zhang et al., 2019). In this series of experiments, 500,000 4T-1 luc-2^+ cells were implanted under the fourth nipple of the mammary fat pad. […]
Tumor Implantation and Measurements. […] Tumors were treated with either the indicated antitumor regimen or vehicle control and measured by IVIS imaging (if applicable) or calculated by caliper measurement. […] Tumor size and progression were determined by caliper measurement. […] Tumor size and progression were determined by caliper measurement. Tumor volumes were calculated by measuring in two dimensions according to the formula (longest length^2)×shortest length.
IVIS Imaging. Post tumor implantation, mice were injected with […] of 10 mg/ml D-Luciferin (Regis Technologies, Morton Grove, IL), incubated for 7 min and bio-luminescence was measured with the IVIS imaging system (Caliper Life Sciences, Waltham, MA) following a 60 second exposure. […]

Take “4-1BBL: 4-1BB ligand (NovusBio), 4-1BB agonist”: the “effect of presence of 4-1BBL on anti-tumor effects of the TLR, STING and RLR agents” value in the test with 4T-1 TNBC cells (FIG. 8) is given as “antagonized the anti-tumor effects”.
With `CC(=O)O.CNC(=N)NCCC[C@H](N)C(=O)O` [L-NMMA, L-NG-monomethyl arginine acetate], the “impact on tumor growth” value in the test on 4T-1 TNBC cells was “no beneficial impact on tumor growth”.
For the compound `N=C(NO)NCC[C@H](N)C(=O)O` [No-hydroxy-nor-L-arginine], the “impact on tumor growth” value with 4T-1 TNBC cells was “no beneficial impact on tumor growth”.
In the case of `O=P(O)(O)C(Cl)(Cl)P(=O)(O)O` [clodronate], in the test with 4T-1 TNBC cells, the “impact on tumor growth” value is listed as “no beneficial impact on tumor growth”.
The same measure, in the same setting: under `NS(=O)(=O)NCCNc1nonc1C(=NO)Nc1ccc(F)c(Br)c1` [epacadostat] stands “no beneficial impact on tumor growth”.
On to `Cc1cccc(-c2nn3c(c2-c2ccnc4ccc(C(N)=O)cc24)CCC3)n1` [galunersitib, galunisertib], for which the “tumor growth in the orthotopic setting” value in the test with 4T-1 luc-2+ cells is “no impact on tumor growth”.
